The values that follow come from ChEMBL document CHEMBL5465560, “Selectivity Literature for EUbOPEN Chemogenomic Library” (2024).

The target of assay [1] is T1, Ephrin type-A receptor 8 (Homo sapiens) (UniProt P29322).
T1 sequence (whole entry): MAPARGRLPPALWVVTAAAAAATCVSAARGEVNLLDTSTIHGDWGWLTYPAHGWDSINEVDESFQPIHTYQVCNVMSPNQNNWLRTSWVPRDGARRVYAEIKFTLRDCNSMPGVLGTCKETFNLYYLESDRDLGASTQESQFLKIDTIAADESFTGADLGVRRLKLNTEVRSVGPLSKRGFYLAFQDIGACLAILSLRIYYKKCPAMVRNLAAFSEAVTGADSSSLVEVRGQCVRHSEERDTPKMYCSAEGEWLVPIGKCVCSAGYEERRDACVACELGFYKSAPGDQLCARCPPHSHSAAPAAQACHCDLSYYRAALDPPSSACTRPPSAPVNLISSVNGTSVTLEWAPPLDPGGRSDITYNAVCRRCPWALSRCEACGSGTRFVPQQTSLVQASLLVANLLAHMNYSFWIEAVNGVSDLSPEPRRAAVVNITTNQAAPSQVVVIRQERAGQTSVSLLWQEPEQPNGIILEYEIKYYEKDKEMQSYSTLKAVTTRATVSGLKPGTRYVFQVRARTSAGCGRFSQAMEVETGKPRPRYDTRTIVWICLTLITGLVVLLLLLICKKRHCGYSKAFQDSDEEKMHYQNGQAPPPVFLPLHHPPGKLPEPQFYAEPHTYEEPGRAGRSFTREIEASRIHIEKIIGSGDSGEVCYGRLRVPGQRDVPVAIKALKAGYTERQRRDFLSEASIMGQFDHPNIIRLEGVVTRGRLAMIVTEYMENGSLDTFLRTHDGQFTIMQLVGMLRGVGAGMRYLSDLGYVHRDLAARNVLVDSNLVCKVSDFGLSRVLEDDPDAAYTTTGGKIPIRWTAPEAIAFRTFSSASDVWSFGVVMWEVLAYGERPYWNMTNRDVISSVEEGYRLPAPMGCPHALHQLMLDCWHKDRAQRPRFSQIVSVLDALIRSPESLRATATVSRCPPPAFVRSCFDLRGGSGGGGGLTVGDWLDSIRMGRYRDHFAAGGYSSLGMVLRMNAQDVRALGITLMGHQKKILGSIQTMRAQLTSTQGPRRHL
Kind of assay: Selectivity interaction (Upstate Kinase Profiler service (Millipore)) EUB0000056c EPHA8. The following applies: at 1 µM.

The target in assay [2] is T1, Ephrin type-A receptor 8 (Homo sapiens). The assay can be described thus: Selectivity interaction (Ambit KINOMEscan and KiNATiv profiling in Jurkat cells) EUB0000090b EPHA8. Type of assay: cell-based. The following applies: at 1 µM.
The subject of assay [3] is Receptor-type tyrosine-protein kinase FLT3 (Homo sapiens), P36888 [UNDEFINED MUTATION]. The conditions noted are these: at 10 µM.
For assay [4], the target named is Tyrosine-protein kinase receptor UFO (Homo sapiens) (UniProt P30530). The assay can be described thus: Selectivity interaction (KinomeScan (DiscoverX)) EUB0000045b AXL.
Tyrosine-protein kinase receptor UFO (Homo sapiens), sequence (P30530 whole entry): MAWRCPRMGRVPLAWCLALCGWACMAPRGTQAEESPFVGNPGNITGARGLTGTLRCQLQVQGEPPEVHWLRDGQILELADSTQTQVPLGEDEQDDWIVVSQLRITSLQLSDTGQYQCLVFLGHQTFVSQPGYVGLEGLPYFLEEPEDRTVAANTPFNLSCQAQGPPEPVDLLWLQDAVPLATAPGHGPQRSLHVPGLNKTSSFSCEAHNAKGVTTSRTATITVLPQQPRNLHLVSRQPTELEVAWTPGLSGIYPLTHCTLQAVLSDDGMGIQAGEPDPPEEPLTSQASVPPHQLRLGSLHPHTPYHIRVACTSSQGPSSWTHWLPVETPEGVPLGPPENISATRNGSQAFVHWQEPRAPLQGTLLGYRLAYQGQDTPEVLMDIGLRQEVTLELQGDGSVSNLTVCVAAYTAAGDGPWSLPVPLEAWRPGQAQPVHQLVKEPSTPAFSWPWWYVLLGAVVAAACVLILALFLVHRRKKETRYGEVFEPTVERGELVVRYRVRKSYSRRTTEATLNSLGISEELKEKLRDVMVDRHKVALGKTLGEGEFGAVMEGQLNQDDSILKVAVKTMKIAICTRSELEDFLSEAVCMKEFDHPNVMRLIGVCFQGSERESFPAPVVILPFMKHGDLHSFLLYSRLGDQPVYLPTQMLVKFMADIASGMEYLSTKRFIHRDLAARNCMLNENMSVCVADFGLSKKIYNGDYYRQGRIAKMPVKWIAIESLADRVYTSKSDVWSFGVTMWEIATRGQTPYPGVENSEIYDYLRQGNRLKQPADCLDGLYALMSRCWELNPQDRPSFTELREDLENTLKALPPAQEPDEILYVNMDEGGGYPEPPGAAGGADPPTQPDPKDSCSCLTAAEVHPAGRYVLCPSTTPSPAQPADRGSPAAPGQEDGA
In assay [5] the target is T2, Serine/threonine-protein kinase 3 (Homo sapiens) (UniProt Q13188).
T2 sequence (whole entry): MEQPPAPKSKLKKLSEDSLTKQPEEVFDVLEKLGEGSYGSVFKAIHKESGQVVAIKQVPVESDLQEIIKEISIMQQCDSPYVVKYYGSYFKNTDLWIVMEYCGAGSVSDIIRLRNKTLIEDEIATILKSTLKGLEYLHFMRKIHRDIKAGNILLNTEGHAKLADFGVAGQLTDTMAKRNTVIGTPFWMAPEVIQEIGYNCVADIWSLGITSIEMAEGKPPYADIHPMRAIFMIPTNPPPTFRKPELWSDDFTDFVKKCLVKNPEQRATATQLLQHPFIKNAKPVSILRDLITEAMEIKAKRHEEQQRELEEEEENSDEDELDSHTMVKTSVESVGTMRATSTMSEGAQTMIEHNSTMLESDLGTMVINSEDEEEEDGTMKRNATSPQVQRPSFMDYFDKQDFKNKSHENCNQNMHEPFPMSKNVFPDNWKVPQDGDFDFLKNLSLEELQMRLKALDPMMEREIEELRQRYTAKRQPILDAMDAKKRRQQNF
Kind of assay: Selectivity interaction (KinomeScan (DiscoverX)) EUB0000045b STK3.

In assay [6] the target is Rho-associated protein kinase 1 (Homo sapiens) (UniProt Q13464). Kind of assay: Selectivity interaction (KinomeScan (DiscoverX)) EUB0000045b ROCK1.
Rho-associated protein kinase 1 (Homo sapiens), sequence (Q13464 2-1354 limits assumed): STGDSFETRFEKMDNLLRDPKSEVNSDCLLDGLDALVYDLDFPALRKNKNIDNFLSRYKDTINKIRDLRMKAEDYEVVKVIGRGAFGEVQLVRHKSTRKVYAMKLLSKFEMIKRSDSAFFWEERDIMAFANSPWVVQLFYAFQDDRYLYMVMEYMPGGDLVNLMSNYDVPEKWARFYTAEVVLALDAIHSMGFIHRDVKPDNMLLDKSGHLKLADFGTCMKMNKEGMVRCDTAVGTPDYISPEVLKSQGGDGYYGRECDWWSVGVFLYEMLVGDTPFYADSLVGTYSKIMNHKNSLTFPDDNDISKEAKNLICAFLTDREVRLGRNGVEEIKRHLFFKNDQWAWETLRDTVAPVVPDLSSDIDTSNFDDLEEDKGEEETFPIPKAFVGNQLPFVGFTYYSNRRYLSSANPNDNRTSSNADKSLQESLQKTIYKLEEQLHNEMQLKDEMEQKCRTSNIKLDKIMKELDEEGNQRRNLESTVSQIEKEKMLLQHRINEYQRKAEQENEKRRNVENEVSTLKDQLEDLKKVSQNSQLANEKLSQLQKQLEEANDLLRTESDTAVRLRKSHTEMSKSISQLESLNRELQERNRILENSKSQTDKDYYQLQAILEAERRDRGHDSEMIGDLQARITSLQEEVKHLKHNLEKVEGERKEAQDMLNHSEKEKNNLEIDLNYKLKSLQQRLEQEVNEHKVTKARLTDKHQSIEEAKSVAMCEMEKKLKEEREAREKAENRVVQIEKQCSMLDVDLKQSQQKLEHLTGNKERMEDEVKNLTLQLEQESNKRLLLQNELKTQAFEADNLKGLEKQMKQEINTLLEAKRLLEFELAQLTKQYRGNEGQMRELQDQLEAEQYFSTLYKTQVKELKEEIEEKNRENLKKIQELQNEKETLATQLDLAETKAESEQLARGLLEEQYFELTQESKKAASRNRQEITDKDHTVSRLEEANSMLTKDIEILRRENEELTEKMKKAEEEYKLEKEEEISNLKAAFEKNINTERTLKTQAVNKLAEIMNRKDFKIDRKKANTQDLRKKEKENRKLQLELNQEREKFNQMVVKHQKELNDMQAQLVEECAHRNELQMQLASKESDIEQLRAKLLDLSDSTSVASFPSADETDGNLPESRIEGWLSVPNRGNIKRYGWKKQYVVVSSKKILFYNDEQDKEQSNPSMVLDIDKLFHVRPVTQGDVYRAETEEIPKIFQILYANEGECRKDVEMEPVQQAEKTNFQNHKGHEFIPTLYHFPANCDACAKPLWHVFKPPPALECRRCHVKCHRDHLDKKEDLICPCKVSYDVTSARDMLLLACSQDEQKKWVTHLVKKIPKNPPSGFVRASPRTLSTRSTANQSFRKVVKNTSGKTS
The target of assay [7] is Serine/threonine-protein kinase B-raf (Homo sapiens) (UniProt P15056). The assay can be described thus: Selectivity interaction (Kinase panel (Invitrogen)) EUB0000639a BRAF. The conditions noted are these: at 200 nM.
Serine/threonine-protein kinase B-raf (Homo sapiens), sequence (P15056 whole entry): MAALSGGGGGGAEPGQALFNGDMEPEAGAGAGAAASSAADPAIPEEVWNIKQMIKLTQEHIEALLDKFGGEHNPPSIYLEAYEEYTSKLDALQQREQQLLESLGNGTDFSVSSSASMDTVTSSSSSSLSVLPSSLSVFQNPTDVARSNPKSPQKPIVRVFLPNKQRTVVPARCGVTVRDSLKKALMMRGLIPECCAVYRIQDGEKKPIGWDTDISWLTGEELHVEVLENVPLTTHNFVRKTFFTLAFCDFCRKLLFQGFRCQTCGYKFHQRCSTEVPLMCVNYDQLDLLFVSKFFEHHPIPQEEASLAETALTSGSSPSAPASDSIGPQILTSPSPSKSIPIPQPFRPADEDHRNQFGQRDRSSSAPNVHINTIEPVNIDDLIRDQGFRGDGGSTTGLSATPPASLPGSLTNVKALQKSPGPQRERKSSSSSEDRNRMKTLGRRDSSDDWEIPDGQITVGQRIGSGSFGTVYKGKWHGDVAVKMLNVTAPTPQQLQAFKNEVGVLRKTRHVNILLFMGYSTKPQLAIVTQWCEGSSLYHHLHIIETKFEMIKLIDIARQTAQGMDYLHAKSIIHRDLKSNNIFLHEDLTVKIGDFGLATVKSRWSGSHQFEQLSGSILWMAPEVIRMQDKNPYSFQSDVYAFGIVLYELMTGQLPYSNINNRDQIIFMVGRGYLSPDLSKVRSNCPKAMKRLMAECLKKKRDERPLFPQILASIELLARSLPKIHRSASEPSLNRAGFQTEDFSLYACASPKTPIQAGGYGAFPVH
Assay [8] has as its target T3, Testis-specific serine/threonine-protein kinase 3 (Homo sapiens) (UniProt Q96PN8).
T3 sequence (whole entry): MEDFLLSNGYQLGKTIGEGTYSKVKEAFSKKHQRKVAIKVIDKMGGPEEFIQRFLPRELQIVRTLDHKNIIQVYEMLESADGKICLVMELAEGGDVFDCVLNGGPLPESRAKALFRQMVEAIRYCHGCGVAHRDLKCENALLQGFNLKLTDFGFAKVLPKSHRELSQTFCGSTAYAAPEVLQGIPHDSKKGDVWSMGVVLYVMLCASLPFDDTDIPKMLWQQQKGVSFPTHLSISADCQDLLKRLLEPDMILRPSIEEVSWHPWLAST
Kind of assay: Selectivity interaction (KinomeScan (DiscoverX)) EUB0000229b TSSK3. The following applies: at 10 µM.

Assay [9] concerns the target Serine/threonine-protein kinase mTOR (Homo sapiens, UniProt P42345). Kind of assay: Selectivity interaction (KinomeScan (DiscoverX)) EUB0000229b MTOR. The following applies: at 10 µM.
The target of assay [10] is Protein-tyrosine kinase 6 (Homo sapiens, UniProt Q13882). Kind of assay: Selectivity interaction (KinomeScan (DiscoverX)) EUB0000595a PTK6. The conditions noted are these: at 10 µM.
Protein-tyrosine kinase 6, sequence (Q13882 whole entry, looked up): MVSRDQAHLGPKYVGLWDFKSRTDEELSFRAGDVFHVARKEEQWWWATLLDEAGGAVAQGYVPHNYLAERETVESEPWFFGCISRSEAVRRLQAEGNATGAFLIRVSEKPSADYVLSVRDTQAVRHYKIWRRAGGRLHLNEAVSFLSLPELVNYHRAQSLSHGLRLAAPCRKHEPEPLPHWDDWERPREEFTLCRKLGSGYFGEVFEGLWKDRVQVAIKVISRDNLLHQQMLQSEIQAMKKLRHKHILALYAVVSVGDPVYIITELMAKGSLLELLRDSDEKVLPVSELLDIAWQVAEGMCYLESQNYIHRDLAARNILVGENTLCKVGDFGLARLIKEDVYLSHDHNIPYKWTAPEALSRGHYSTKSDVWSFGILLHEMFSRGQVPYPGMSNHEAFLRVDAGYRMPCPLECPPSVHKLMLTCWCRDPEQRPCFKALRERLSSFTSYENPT
Assay [11] concerns the target T4, Dual specificity mitogen-activated protein kinase kinase 4 (Homo sapiens) (UniProt P45985).
T4 sequence (whole entry): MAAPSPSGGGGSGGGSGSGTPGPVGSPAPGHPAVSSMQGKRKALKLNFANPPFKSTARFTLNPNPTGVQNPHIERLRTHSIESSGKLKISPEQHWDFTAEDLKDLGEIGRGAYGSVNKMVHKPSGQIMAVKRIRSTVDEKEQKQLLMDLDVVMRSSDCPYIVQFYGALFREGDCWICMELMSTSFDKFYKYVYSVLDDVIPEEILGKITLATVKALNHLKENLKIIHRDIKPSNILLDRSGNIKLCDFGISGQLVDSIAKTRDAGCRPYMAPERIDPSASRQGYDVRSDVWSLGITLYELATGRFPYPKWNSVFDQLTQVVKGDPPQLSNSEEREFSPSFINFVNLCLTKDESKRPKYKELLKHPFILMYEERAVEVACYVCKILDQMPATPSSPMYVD
The assay can be described thus: Selectivity interaction (ActivX KiNativ screen (ex vivo kinase selectivity in human PBMCs)) EUB0001619a MAP2K4. Type of assay: cell-based. The conditions noted are these: PBMC, at 1 µM.

Receptor-type tyrosine-protein kinase FLT3 (Homo sapiens), P36888 [UNDEFINED MUTATION], sequence (P36888 whole entry, looked up, change not shown): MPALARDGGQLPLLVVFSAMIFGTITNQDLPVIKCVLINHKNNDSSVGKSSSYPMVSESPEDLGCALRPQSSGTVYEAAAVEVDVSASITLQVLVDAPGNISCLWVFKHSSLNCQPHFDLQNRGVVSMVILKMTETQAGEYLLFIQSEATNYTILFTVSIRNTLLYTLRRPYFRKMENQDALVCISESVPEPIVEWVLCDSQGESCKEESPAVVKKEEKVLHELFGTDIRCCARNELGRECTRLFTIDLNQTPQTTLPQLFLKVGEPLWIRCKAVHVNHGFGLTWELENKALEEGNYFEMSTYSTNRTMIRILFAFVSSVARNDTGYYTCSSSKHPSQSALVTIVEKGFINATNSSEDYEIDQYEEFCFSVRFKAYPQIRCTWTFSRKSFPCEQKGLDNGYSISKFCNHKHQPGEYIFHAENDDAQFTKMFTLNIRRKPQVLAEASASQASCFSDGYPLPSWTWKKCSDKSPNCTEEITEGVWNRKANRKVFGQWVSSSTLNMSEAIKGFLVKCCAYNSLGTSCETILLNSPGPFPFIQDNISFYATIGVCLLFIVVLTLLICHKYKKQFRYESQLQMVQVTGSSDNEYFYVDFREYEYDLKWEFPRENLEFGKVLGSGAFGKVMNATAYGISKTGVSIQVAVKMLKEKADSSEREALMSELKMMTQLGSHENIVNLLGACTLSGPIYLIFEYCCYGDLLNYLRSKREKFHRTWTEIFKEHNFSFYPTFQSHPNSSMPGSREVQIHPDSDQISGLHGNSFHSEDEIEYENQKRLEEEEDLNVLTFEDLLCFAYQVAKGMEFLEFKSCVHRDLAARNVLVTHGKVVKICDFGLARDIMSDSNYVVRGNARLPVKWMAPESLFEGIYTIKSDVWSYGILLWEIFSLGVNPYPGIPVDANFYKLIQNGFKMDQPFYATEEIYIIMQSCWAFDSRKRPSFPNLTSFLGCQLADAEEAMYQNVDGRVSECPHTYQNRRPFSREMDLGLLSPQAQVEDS

As to `Cc1ccc(-c2ccc3c(ccc4sc5c(c43)NC[C@@H](C)NC5=O)n2)cn1`, in [1], the % of inhibition amounted to 1%.

Turning to `CN(C)C/C=C/C(=O)Nc1ccc(C(=O)N2CCCC(Nc3ncc(Cl)c(-c4c[nH]c5ccccc45)n3)C2)cc1` (centres undefined), in assay [2], the % of control came to 89%.

In [3], `CCN(CC)CCCCNc1ncc2cc(-c3cc(OC)cc(OC)c3)c(NC(=O)NC(C)(C)C)nc2n1` displayed a % of control of 100%.

Consider `C=CC(=O)Nc1cc(-n2c(=O)ccc3cnc4ccc(-c5ccc(NS(C)(=O)=O)cc5)cc4c32)ccc1C`, for which the % of control was 100% in assay [4] (at 1 µM); 100% in assay [4] (at 10 µM); 62% in [5] (at 1 µM); 95% in assay [5] (at 10 µM); 56% in [6] (at 1 µM); 59% in assay [6] (at 10 µM).

As for `CC[C@@H]1[C@H](F)C(=O)N[C@@H]1COc1nccc2cc(C(N)=O)c(OC)cc12` [ZIMLOVISERTIB], the % of inhibition in assay [7] was 0.492%.

Turning to `COc1cc(N(C)c2ccnc3ccc(C(F)(F)F)cc23)cc(OC)c1OC`, the % binding in [8] amounted to 81%; in [9], 94%.

The compound `COCC(=O)NC/C=C/c1ccc2ncnc(Nc3ccc(Oc4ccc(C)nc4)c(C)c3)c2c1` [CP-724714] showed a % of control in assay [10] of 100%.

As to `N#Cc1cccc(-c2c[nH]c3ncnc(N4CCOCC4)c23)c1`, the % of inhibition in assay [11] is -17%.
